Reference: patent publication US20160213742A1, “COMPOSITIONS AND METHODS FOR THE TREATMENT OF FUNGAL INFECTIONS” (priority 2013, published 2016)
≈ marks a conversion by molar mass, not a printed value. Like-named read-outs stand apart in the source and are kept apart here. Starred links: 1 amine or outer side, 2 acyl side, 3 side chain; linkers in the order of their positions; H or OH if unused. Positions of bridges follow the written chain, without caps; N, C: chain ends. Non-standard residues stand in square brackets, D forms with d. Residues, ends and D or L forms follow the SMILES beside them. Groups on a side chain read outwards from the residue. *: point of attachment. Orn(4R-OH,5R-OCH2CH2NMe3+) = C[N+](C)(C)CCO[C@@H](N[*:3])[C@H](O)C[C@H](N[*:1])C(=O)[*:2]; pTerphenylCO(4''-OnC5H11) = CCCCCOc1ccc(-c2ccc(-c3ccc(C(=O)*)cc3)cc2)cc1; X1 = O=C([C@@H](N[*:1])[C@H](O)[C@@H](O)c1ccc(O)c(N[*:3])c1)[*:2]; Pro(3S-OH,4S-Me) = C[C@H]1CN[C@H](C(=O)O)[C@H]1O; Hyp = O=C(O)[C@@H]1C[C@@H](O)CN1; βAla = NCCC(=O)O; For = O=C*

Key:
Format in all cases: cell-based
C. krusei ATCC 14243 [1] = settings: C. krusei ATCC 14243; read at 50% growth inhibition for echinocandins (24 h), 100% for amphotericin B (48 h)
Procedure: (§1) MIC and MEC assays were run as described in Example 31 with the following exceptions. Starting solutions of all antifungal agents were prepared in 100% DMSO. Stock concentrations were made at 50× the highest final assay concentration and serially diluted 2-fold, 16 times in a 96-well PCR plate (VWR 83007-374). Candida and Aspergillus suspensions from Sabouraud dextrose agar plate cultures were prepared in 0.85% saline at 0.5 McFarland standard (˜0.1 OD530 nm). Candida suspensions were diluted 1:500 in RPMI (MP Biomedicals, cat no. 1060124; buffered with MOPS and adjusted with NaOH to pH 7.0) to a concentration of ˜0.5-2.5×10^3 CFU/mL and Aspergillus suspensions were diluted 1:50 in RPMI to 0.4-5×10^4 CFU/mL final concentration. 98 μL of each cell suspension in RPMI were added to test wells in a 96-well assay plate (Costar cat. no. 3370). A Beckman Multimek 96 liquid handling robot was used to dispense 2 μL of each 50× stock compound into the plate containing 98 μL of each strain in RPMI (2% final solvent concentration). Plates were shaken then incubated at 35° C. for 24-48 h prior to reading. MIC values were read visually at 50% growth inhibition for echinocandins (24 h) and at 100% growth inhibition for amphotericin B (48 h). MEC values (24 h) were read with the aid of a microscope at the lowest echinocandin concentration where rounded/compact hyphal morphology was observed.

C. albicans ATCC 90028 [2] = settings: C. albicans ATCC 90028; read at 50% growth inhibition for echinocandins (24 h), 100% for amphotericin B (48 h)
Procedure: as §1

C. glabrata ATCC 90030 [3] = settings: C. glabrata ATCC 90030; read at 50% growth inhibition for echinocandins (24 h), 100% for amphotericin B (48 h)
Procedure: as §1

C. tropicalis ATCC 750 = settings: C. tropicalis ATCC 750; read at 50% growth inhibition for echinocandins (24 h), 100% for amphotericin B (48 h)
Procedure: as §1

[4] = test system: C. parapsilosis ATCC 22019; settings: C. parapsilosis ATCC 22019; read at 50% growth inhibition for echinocandins (24 h), 100% for amphotericin B (48 h)
Procedure: as §1

A. flavus ATCC MYA-3631 = assay: MEC assay (Example 32); settings: MEC values (24 h), rounded/compact hyphal morphology
Procedure: as §1

A. fumigatus MYA-3626 [5] = assay: MEC assay (Example 32); settings: MEC values (24 h), rounded/compact hyphal morphology
Procedure: as §1

A. fumigatus MYA-4609 [6] = assay: MEC assay (Example 32); settings: MEC values (24 h), rounded/compact hyphal morphology
Procedure: as §1

A. fumigatus ATCC 13073 [7] = assay: MEC assay (Example 32); settings: MEC values (24 h), rounded/compact hyphal morphology
Procedure: as §1

A. niger ATCC 16404 = assay: MEC assay (Example 32); settings: MEC values (24 h), rounded/compact hyphal morphology
Procedure: as §1

[8] = test system: Neutrophils purified from human peripheral blood; assay: Human Neutrophil Transwell Migration Assay; settings: 37° C., 45 minutes, % of the maximum migration possible
Summary of the method: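 Neutrophils (~50,000–100,000) were placed above 5-micron transwell inserts with test compound in the lower chamber and allowed to migrate 45 min at 37° C. Migrated cells were quantified by ATP luminescence; medium-only background was subtracted and values expressed as % of cells added directly to the bottom well.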

A. fumigatus MX 5944 = assay: MEC assay (Example 31); settings: RPMI pH 7.0, 35° C., 24-48 hr
Summary of the method: (§2)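 Yeast colonies were suspended to a 0.5 McFarland standard and diluted 1:100, while Aspergillus suspensions were diluted to ~0.2-2.5×10^4 CFU/mL final. Organisms were then exposed to 2-fold compound series in RPMI, pH 7.0, at 35° C. for approximately 24-48 hr before visual MIC/MEC reading.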

A. flavus MX 5948 = assay: MEC assay (Example 31); settings: RPMI pH 7.0, 35° C., 24-48 hr
Summary of the method: as §2

A. fumigatus MYA-3626 [9] = assay: MEC assay (Example 31); settings: RPMI pH 7.0, 35° C., 24-48 hr
Summary of the method: as §2

A. fumigatus MYA-4609 [10] = assay: MEC assay (Example 31); settings: RPMI pH 7.0, 35° C., 24-48 hr
Summary of the method: as §2

A. fumigatus ATCC 13073 [11] = assay: MEC assay (Example 31); settings: RPMI pH 7.0, 35° C., 24-48 hr
Summary of the method: as §2

C. krusei ATCC 14243 [12] = assay: microbe, parasite or virus in culture; settings: C. krusei ATCC 14243; RPMI pH 7.0, 35° C., 24-48 hr
Summary of the method: as §2

C. albicans ATCC 90028 [13] = assay: microbe, parasite or virus in culture; settings: C. albicans ATCC 90028; RPMI pH 7.0, 35° C., 24-48 hr
Summary of the method: as §2

C. glabrata ATCC 90030 [14] = assay: microbe, parasite or virus in culture; settings: C. glabrata ATCC 90030; RPMI pH 7.0, 35° C., 24-48 hr
Summary of the method: as §2

[15] = test system: C. parapsilosis ATCC 22019; assay: microbe, parasite or virus in culture; settings: C. parapsilosis ATCC 22019; RPMI pH 7.0, 35° C., 24-48 hr
Summary of the method: as §2

MIC (C. krusei ATCC 14243 [1]) [µg/mL] | MIC (C. albicans ATCC 90028 [2]) [µg/mL] | MIC (C. glabrata ATCC 90030 [3]) [µg/mL] | MIC (C. tropicalis ATCC 750) [µg/mL] | MIC [4] [µg/mL] | Compound | MEC (A. flavus ATCC MYA-3631) [µg/mL] | MEC (A. fumigatus MYA-3626 [5]) [µg/mL] | MEC (A. fumigatus MYA-4609 [6]) [µg/mL] | MEC (A. fumigatus ATCC 13073 [7]) [µg/mL] | MEC (A. niger ATCC 16404) [µg/mL] | also measured
0.5 | 0.5 | 2 | 0.25 | 0.5 | CCCCCOc1ccc(-c2ccc(-c3ccc(C(=O)N[C@H]4C[C@@H](O)[C@@H](OCC[N+](C)(C)C)NC(=O)[C@@H]5[C@@H](O)[C@@H](C)CN5C(=O)[C@H]([C@@H](C)O)NC(=O)[C@H]([C@H](O)[C@@H](O)c5ccc(O)c(NC(=O)CCNC(=O)[C@H](Cc6ccccc6)NC(=O)[C@H](CC(C)C)NC(=O)[C@H](CCSC)NC=O)c5)NC(=O)[C@@H]5C[C@@H](O)CN5C(=O)[C@H]([C@@H](C)O)NC4=O)cc3)cc2)cc1.O=C[O-] [Compound 31] ({pTerphenylCO(4''-OnC5H11)}-[Orn(4R-OH,5R-OCH2CH2NMe3+)]T[Hyp][X1]([βAla-Phe-Leu-Met-For])T[Pro(3S-OH,4S-Me)]; lactam 1-C) | 0.06 | 0.06 | 0.03 | 0.015 | 0.25 | % Neutrophil Migration ([8]; conc 0.001 μg/mL): 126.4%; % Neutrophil Migration ([8]; conc 0.01 μg/mL): 115.7%; % Neutrophil Migration ([8]; conc 0.1 μg/mL): 146.0%; % Neutrophil Migration ([8]; conc 1 μg/mL): 134.3%; % Neutrophil Migration ([8]; conc 10 μg/mL): 64.0%
1 (≈ 1.08 µM) | 0.5 (≈ 0.541 µM) | 1 (≈ 1.08 µM) | 1 (≈ 1.08 µM) | 1 (≈ 1.08 µM) | C[C@@H]1[C@H](O)[C@@H](C)/C=C/C=C/C=C/C=C/C=C/C=C/C=C/[C@H](O[C@@H]2O[C@H](C)[C@@H](O)[C@H](N)[C@@H]2O)C[C@@H]2O[C@](O)(C[C@@H](O)C[C@@H](O)[C@H](O)CC[C@@H](O)C[C@@H](O)CC(=O)O[C@H]1C)C[C@H](O)[C@H]2C(=O)O [amphotericin B, reference compound] | 1 | 0.25 | 1 | 0.25 | 0.5 | MEC (A. fumigatus MX 5944): 0.5-2^ μg/mL; MEC (A. flavus MX 5948): 0.5 to 2 µg/mL; MEC (A. fumigatus MYA-3626 [9]): 0.5 to 2 µg/mL; MEC (A. fumigatus MYA-4609 [10]): 0.5 to 4 µg/mL; MEC (A. fumigatus ATCC 13073 [11]): 0.5 to 4 µg/mL; MIC (C. krusei ATCC 14243 [12]): 0.25-2 ^ μg/mL; MIC (C. albicans ATCC 90028 [13]): 0.12 to 1 µg/mL; MIC (C. glabrata ATCC 90030 [14]): 0.25 to 1 µg/mL; MIC [15]: 0.5 to 2 µg/mL
